Where two headings read alike, the source gives them in different places. Bounds are passed on as bounds.

Assay [1] has as its target T1, Hormone-sensitive lipase (HSL) (Homo sapiens, UniProt Q05469).
T1 sequence (Q05469 1-1076): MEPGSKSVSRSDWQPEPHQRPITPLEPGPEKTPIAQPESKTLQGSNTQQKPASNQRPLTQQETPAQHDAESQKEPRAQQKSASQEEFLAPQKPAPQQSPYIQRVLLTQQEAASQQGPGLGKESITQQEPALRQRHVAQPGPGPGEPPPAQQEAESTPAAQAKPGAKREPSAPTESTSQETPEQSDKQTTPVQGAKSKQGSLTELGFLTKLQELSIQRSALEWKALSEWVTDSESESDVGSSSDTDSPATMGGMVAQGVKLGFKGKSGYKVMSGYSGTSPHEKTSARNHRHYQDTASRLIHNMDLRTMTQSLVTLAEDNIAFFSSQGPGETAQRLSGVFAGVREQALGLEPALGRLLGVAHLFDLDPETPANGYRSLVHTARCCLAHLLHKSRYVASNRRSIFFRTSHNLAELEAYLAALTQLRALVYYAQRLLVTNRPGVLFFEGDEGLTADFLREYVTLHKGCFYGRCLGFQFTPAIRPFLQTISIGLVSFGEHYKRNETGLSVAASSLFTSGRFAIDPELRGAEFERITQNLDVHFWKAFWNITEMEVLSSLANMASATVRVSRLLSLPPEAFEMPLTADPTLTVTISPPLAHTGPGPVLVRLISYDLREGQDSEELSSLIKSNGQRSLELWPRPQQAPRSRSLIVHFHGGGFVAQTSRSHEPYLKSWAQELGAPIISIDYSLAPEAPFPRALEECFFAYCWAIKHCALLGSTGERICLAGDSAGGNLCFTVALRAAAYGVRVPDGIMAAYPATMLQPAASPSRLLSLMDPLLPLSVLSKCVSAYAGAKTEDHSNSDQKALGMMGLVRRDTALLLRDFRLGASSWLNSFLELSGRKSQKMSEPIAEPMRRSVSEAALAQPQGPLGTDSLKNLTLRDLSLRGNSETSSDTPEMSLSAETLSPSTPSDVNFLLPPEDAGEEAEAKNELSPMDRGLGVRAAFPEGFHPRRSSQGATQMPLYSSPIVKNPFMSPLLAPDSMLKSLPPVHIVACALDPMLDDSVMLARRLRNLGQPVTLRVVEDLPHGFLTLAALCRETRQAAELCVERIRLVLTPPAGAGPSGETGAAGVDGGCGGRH
Kind of assay: Hormone-sensitive lipase (HSL) inhibition assay, 3H-labeled triolein or MOME substrate. The format is biochemical. An excerpt: Hormone-sensitive lipase (HSL) [classified as a triacylglycerol lipase, EC 3.1.1.3, in accordance with the Recommendations of the Nomenclature Committee of the International Union of Biochemistry and Molecular Biology (available on the World Wide Web at the following address: http://www.chem.qmw.ac.uk/iubmb/enzyme/)]
Materials. The Hormone-sensitive lipase employed was provided by Dr. Cecilia Holm of Lund University, Sweden, or produced and purified by Novo Nordisk (NN) using the reagents and protocols employed by Dr. Holm. The substrates used are: ^3H-labeled triolein (TO) from Amersham, Buckinghamshire, U.K. cat No. TRA191; 5-20 Ci/mmol dissolved in toluene, triolein (Sigma, Cat. No. T-1740) and mono-oleoyl-2-O-mono-oleylglycerol (MOME) synthesized at (NN) using the protocols provided by Dr. Cecilia Holm, Lund University, Sweden. Phosphatidyl choline (PC) and phosphatidyl inositol (PI) are from Sigma (St Luis Mo., cat. Nos. P-3556 and P-5954, respectively). All other reagents are of commercial grade and obtained from various commercial sources.
Methods. The preparation of the substrates is as follows:
TO: 30 μl PC:PI (20 mg/ml solution of PC:PI 3:1 prepared in chloroform)+128 μl cold TO+15 μl ^3H-TO
MOME: 30 μl PC:PI+100 μl cold MOME+200 μl ^3H-MOME
They are then evaporated under a gentle stream of N2 followed by 20-30 minutes in a Speedvac™ apparatus to ensure the absence of residual solvent.
The samples are prepared as follows:
Samples/controls: 78 μl PED-BSA+20 μl inhibitor (various concentrations)+2 μl HSL (undiluted 0.12 mg/ml). If no inhibitors are being tested, the reaction contains 98 μl PED-BSA+2 μl HSL.
The samples are put on ice and then sonicated as follows:
With TO as substrate, add 2 ml potassium buffer (0.1M potassium phosphate, pH 7) and then sonicate twice for 1 minute, with a 1-minute interval between cycles. Add an additional 1 ml potassium buffer and sonicate 4 times for 30 seconds, with a 30 second interval in between cycles. To finish, add 1 ml BSA 20%-in potassium buffer, mix by inversion and store on ice until use.
With MOME as substrate: add 2 ml potassium buffer and then sonicate twice for 1 minute, with a 1 minute interval between cycles. Add 1.6 ml potassium buffer and sonicate 4 times for 30 seconds, with a 30-second interval between cycles. To finish, add 0.4 ml BSA 20%-buffer, mix by inversion and store on ice until use.
The enzyme reaction is run at 37° C. The substrate mix is added to the various reactions at 10 second intervals, incubated for 30 minutes in a water bath and then stopped with 3.25 ml of a solution containing CH3OH:CHCl3:heptane (10:9:7). After the addition of 1.05 ml potassium buffer pH10.5, the sample is vortexed thoroughly and centrifuged for 20 min at 2000 r.p.m. One ml of the upper phase is added to 10 ml scintillation fluid, and mixed thoroughly by shaking.
The samples are then counted, 5 min per vial, in a scintillation counter.

The target in the next assay is T2, Lipoprotein lipase (LPL) (Bos taurus, UniProt P11151).
T2 construct: Dr. Gunilla Olivecrona, Umea University (gift)
T2 sequence (P11151 29-478): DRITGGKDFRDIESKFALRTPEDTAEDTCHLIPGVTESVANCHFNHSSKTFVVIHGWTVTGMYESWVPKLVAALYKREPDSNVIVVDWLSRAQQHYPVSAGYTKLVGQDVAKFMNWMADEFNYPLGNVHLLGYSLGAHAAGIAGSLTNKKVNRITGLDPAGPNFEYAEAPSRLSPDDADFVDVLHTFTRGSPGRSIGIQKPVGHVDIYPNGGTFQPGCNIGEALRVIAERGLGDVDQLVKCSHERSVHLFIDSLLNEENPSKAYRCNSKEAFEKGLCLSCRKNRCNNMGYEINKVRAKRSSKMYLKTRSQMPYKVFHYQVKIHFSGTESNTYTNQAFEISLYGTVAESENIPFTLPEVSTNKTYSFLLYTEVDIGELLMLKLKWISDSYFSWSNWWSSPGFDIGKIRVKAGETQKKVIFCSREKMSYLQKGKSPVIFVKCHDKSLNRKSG
Kind of assay: Lipoprotein lipase (LPL) inhibition assay, 3H-triolein/intralipid substrate. The format is biochemical. As to conditions: read-out: LPL inhibition (% inh. at 50 μM). An excerpt: Lipoprotein Lipase (LPL) [Classified as EC 3.1.1.34 in accordance with the Recommendations of the Nomenclature Committee of the International Union of Biochemistry and Molecular Biology (available on the World Wide Web at the following address: http://www.chem.qmw.ac.uk/iubmb/enzyme/)]
Materials. The lipoprotein lipase employed was obtained from Dr. Gunilla Olivecrona of Umea University, Sweden. ^3H-triolein (TO) from Amersham, Buckinghamshire, U.K., cat No. TRA191; 5-20 Ci/mmol dissolved in toluene. Intralipid is from Kabi-Fresenius). Apo CII was obtained from PMSF-treated plasma from overnight fasted rats. All other reagents are of commercial grade and obtained from various commercial sources.
Methods. The preparation of the substrate is as follows:
25 μl of ^3H-Triolein evaporated under a gentle stream of N2 in a 27° C. room in 4 ml chromacol glass followed by the addition of 1 ml 10% intralipid. This is mixed and sonicated on ice for 5 minutes (50% pulse mode). This can be kept for 1 week at 4° C.
100 μl assay medium (0.3M Tris-Cl, 0.2M NaCl, 0.2 mg heparin/ml and 120 mg BSA/ml (fraction V, Sigma no. 3401, pH 8.5))
All mixed in a 13×100 mm glass tube and incubated for at least 5 minutes.
2. Add 5 μl LPL (of a solution containing 500 mU/mg)
Mix and incubate for 30 minutes at 25° C.
3. The reaction is stopped with 3.25 ml of a solution containing Methanol:chloroform:heptan 10:9:7. Add 1.05 ml buffer (100 mM Boric acid, 100 mM potassium carbonate pH 10.5) and mix 10 seconds per vial.
5. Take 1 ml of the upper phase+10 ml scintillation fluid and mix
6. Scintillation count for 5 minutes per vial.

[2] abbreviates: read-out: HSL inhibition (IC50).

In the case of `COc1ccccc1OC(=O)NN1CCc2ccccc2C1` [Example 2, (3,4-Dihydro-1H-isoquinolin-2-yl)-carbamic acid 2-methoxy-phenyl Ester], the IC50 (in general, the concentration that inhibits the measured activity by half) in assay [1] (setting [2]) stood at 6400 nM. The inhibition (usually the percentage by which the read-out fell short of the control) at 50 µM on Lipoprotein lipase (LPL) was 2%.

Take `COc1ccc(OC(=O)NN2CCc3ccccc3C2)cc1` [Example 3, (3,4-Dihydro-1H-isoquinolin-2-yl)-carbamic acid 4-methoxy-phenyl Ester]: in assay [1] (setting [2]), the half-inhibitory concentration (IC50) is 360 nM. Also, the inhibition at 50 µM at Lipoprotein lipase (LPL) came to 0%.

In the case of `COC(=O)c1ccc(OC(=O)NN2CCc3ccccc3C2)cc1` [Example 4, 4-(3,4-Dihydro-1H-isoquinolin-2-ylcarbamoyloxy)-benzoic Acid Methyl Ester], in assay [1] (setting [2]), the IC50 is 9900 nM. Further, on Lipoprotein lipase (LPL), the inhibition at 50 µM was found to be 20%.

With `O=C(NN1CCc2ccccc2C1)Oc1ccc(Br)cc1` [Example 5, (3,4-Dihydro-1H-isoquinolin-2-yl)-carbamic acid 4-bromo-phenyl Ester], the IC50 in assay [1] (setting [2]) is 39 nM. For the same molecule, the inhibition at 50 µM on Lipoprotein lipase (LPL) is 7%.

Regarding `O=C(NN1CCc2ccccc2C1)Oc1ccc(F)cc1` [Example 7], the IC50 in assay [1] (setting [2]) worked out at 460 nM. The inhibition at 50 µM at Lipoprotein lipase (LPL) was 0%.

Consider `Cc1ccc(OC(=O)NN2CCc3ccccc3C2)cc1` [Example 8, (3,4-Dihydro-1H-isoquinolin-2-yl)-carbamic Acid p-tolyl Ester], for which, in assay [1] (setting [2]), the IC50 came out at 30 nM. For the same molecule, the inhibition at 50 µM at Lipoprotein lipase (LPL) amounted to 1%.

Take `Cc1ccccc1OC(=O)NN1CCc2ccccc2C1` [Example 9, (3,4-Dihydro-1H-isoquinolin-2-yl)-carbamic Acid o-tolyl Ester]: the IC50 in assay [1] (setting [2]) was found to be 1600 nM. The inhibition at 50 µM on Lipoprotein lipase (LPL) turned out to be 7%.

Turning to `Cc1cccc(OC(=O)NN2CCc3ccccc3C2)c1` [Example 10, (3,4-Dihydro-1H-isoquinolin-2-yl)-carbamic Acid m-tolyl Ester], in assay [1] (setting [2]), the half-maximal inhibitory concentration (IC50) was found to be 670 nM. Moreover, the inhibition at 50 µM at Lipoprotein lipase (LPL) was determined as 5%.

Take `O=C(NN1CCc2ccccc2C1)Oc1c(Cl)cccc1Cl` [Example 11, (3,4-Dihydro-1H-isoquinolin-2-yl)-carbamic Acid 2.6-dichloro-phenyl Ester]: the IC50 in assay [1] (setting [2]) is more than 10000 nM. Further, the inhibition at 50 µM on Lipoprotein lipase (LPL) stood at 7%.

For `O=C(NN1CCc2ccccc2C1)Oc1ccc(C(F)(F)F)cc1` [Example 13, (3,4-Dihydro-1H-isoquinolin-2-yl)-carbamic Acid 4-trifluoromethyl-phenyl Ester], the IC50 in assay [1] (setting [2]) is 45 nM. The inhibition at 50 µM on Lipoprotein lipase (LPL) was determined as 3%.

As to `O=C(NN1CCc2ccccc2C1)Oc1ccccc1Br` [Example 14, (3,4-Dihydro-1H-isoquinolin-2-yl)-carbamic Acid 2-bromo-phenyl Ester], in assay [1] (setting [2]), the IC50 was determined as 800 nM. In addition, the inhibition at 50 µM on Lipoprotein lipase (LPL) was 7%.

`CCC(=O)c1ccc(OC(=O)NN2CCc3ccccc3C2)cc1` [Example 24]: the 50% inhibitory concentration (IC50) in assay [1] (setting [2]) is more than 10000 nM.

`CC(=O)Nc1ccc(OC(=O)NN2CCc3ccccc3C2)cc1` [Example 25]: the concentration for half-maximal inhibition (IC50) in assay [1] (setting [2]) was more than 10000 nM.

Consider `Cc1ccc(C(=O)c2ccc(OC(=O)NN3CCc4ccccc4C3)cc2)cc1` [Example 26], for which the IC50 in assay [1] (setting [2]) is more than 10000 nM.

As to `CN(C)CCc1ccc(OC(=O)NN2CCc3ccccc3C2)cc1` [Example 34], the IC50 in assay [1] (setting [2]) was more than 10000 nM.

For the molecule `O=C(NN1CCc2ccccc2C1)Oc1ccc(-c2ccccc2)cc1` [Example 36], the IC50 in assay [1] (setting [2]) was more than 10000 nM.

In the case of `O=C(NN1CCc2ccccc2C1)Oc1ccc(C(=O)c2ccccc2)cc1` [Example 41], the IC50 in assay [1] (setting [2]) was more than 10000 nM.

For the molecule `O=C(NN1CCc2ccccc2C1)Oc1ccc(C(=O)CCCCl)cc1` [Example 44], in assay [1] (setting [2]), the half-maximal inhibitory concentration (IC50) was more than 10000 nM.

As for `CC(=O)c1ccc(OC(=O)NN2CCc3ccccc3C2)cc1` [Example 45], in assay [1] (setting [2]), the 50% inhibitory concentration (IC50) was more than 10000 nM.

As for `O=C(NN1CCc2ccccc2C1)Oc1ccc(Cl)c(C(F)(F)F)c1` [Example 47], the half-maximal inhibitory concentration (IC50) in assay [1] (setting [2]) is more than 10000 nM.

With `O=C(NN1CCCCC1)Oc1ccc(Cl)cc1` [Example 48, Piperidin-1-yl-carbamic Acid 4-chloro-phenyl Ester], in assay [1], the IC50 is 50 nM.

`O=C(NN1CCOCC1)Oc1ccc(Cl)cc1` [Example 49, Morpholin-4-yl-carbamic Acid 4-chloro-phenyl Ester] yielded an IC50 in assay [1] of 100 nM.

On to `S=C(NN1CCc2ccccc2C1)Sc1ccccc1` [Example 50, (3,4-Dihydro-1H-isoquinolin-2-yl)-dithiocarbamic Acid Phenyl Ester], for which the IC50 in assay [1] (setting [2]) is more than 10000 nM.

The values are drawn from US20020082254A1, “Compounds for treating disorders where a decreased level of plasma FFA is desired” (priority 2000, published 2002).
